We go through 40 compounds from ChEMBL document CHEMBL1148677, “Identification of small-molecule inhibitors of the Abeta-ABAD interaction” (Bioorg Med Chem Lett, 2006).

Calls of active or inactive are those of the source. The rule behind the calls is not given here. Bounds are passed on as bounds.

For one data set, the species on record is Homo sapiens. Put plainly: Inhibition of beta amyloid-ABAD interaction by ELISA at 1 mM.
The nature of data set [1]: Inhibition of beta amyloid-ABAD interaction by ELISA. Also noted: species or system Homo sapiens.
A short description of data set [2]: Partition coefficient, log P of the compound. The following applies: octanol/water. Format: physicochemical.

As for `COC(=O)c1cc(NC(=O)Nc2nc3ccc(OC(F)(F)F)cc3s2)ccc1O`, the outcome in the data set listed under Homo sapiens was Active. For the same compound, the IC50 in data set [1] came out at 244 µM. For the compound `COc1ccc2nc(NC(=O)Nc3ccccc3)sc2c1` [FRENTIZOLE], the IC50 in data set [1] was determined as 200 µM. `O=C(Nc1cccnc1)Nc1nc2ccc(F)cc2s1`: in the data set filed under Homo sapiens, the outcome was Active. In addition, in data set [1], the midpoint of inhibition, the IC50, lay at 282 µM. Take `O=C(Nc1ccc(O)c(C(=O)O)c1)Nc1nc2ccc(F)cc2s1`: the outcome in the data set filed under Homo sapiens was Active. Besides, the midpoint of inhibition in data set [1], the IC50, lay at 261 µM. `COc1cccc(C(=O)Nc2nc3ccc(Cl)cc3s2)c1OC`: the inhibition in the data set listed under Homo sapiens is less than 50%.

On to `COc1ccc2nc(NC(=O)NOc3ccccc3)sc2c1`, for which the outcome in the data set filed under Homo sapiens was Active. The compound also returned an IC50 in data set [1] of 316 µM. For the compound `O=C(Nc1cc(O)c2cc(S(=O)(=O)O)ccc2c1)Nc1nc2ccc(Cl)cc2s1`, in the data set filed under Homo sapiens, the outcome was Active. In data set [1], this compound returned an IC50 of 267 µM.

As for `COc1ccc2nc(NC(=O)Nc3ccc(O)c(C(=O)O)c3)sc2c1`, the outcome in the data set listed under Homo sapiens was Active. Also, half-maximal inhibition in data set [1] (IC50) required 29.5 µM. On to `COc1ccc2nc(NC(=O)N3CCN(c4ccc5c(c4)OCO5)CC3)sc2c1`, for which the IC50 in data set [1] was found to be 163 µM. In the case of `CCOc1ccc2nc(NC(=O)c3ccccc3)sc2c1`, the inhibition in the data set filed under Homo sapiens is less than 50%. For `O=C(Nc1ccc(O)cc1)Nc1nc2ccc(OC(F)(F)F)cc2s1`, the outcome in the data set filed under Homo sapiens was Active. The compound further yielded an IC50 in data set [1] of 47.6 µM. As to `COc1ccc2nc(NC(=S)Nc3ccccc3)sc2c1`, the concentration for half-maximal inhibition (IC50) in data set [1] came out at 190 µM. `O=C(Nc1nc2ccc(F)cc2s1)c1cccc(O)c1O` yielded an inhibition in the data set filed under Homo sapiens of less than 50%. Take `COC(=O)c1ccc(NC(=O)Nc2nc3ccc(F)cc3s2)c(I)c1`: in the data set filed under Homo sapiens, the result was Active. The IC50 in data set [1] came to 286 µM.

`COc1ccc2nc(NC(=O)Nc3cccnc3)sc2c1`: the result in the data set listed under Homo sapiens was Active. Besides, in data set [1], the IC50 stood at 257 µM. On to `O=C(Nc1nc2ccc(F)cc2s1)c1ccccc1`, for which the inhibition in the data set listed under Homo sapiens was less than 50%. For the compound `O=C(Nc1cc(O)c2cc(S(=O)(=O)O)ccc2c1)Nc1nc2ccc(OC(F)(F)F)cc2s1`, the outcome in the data set filed under Homo sapiens was Active. The compound further had an IC50 in data set [1] of 29 µM. Consider `O=C(Nc1nc2ccc(Cl)cc2s1)c1cccc(O)c1O`, for which the inhibition in the data set listed under Homo sapiens is less than 50%.

`CCOc1ccc2nc(NC(=O)c3cccc(OC)c3OC)sc2c1`: the inhibition in the data set listed under Homo sapiens was less than 50%. In data set [2], `COC(=O)c1cc(NC(=O)Nc2nc3ccc(F)cc3s2)ccc1O` had a logP of 1.15. Besides, in the data set filed under Homo sapiens, the result was Active. For the same compound, the IC50 in data set [1] came to 6.56 µM. In the case of `COc1ccc2nc(NC(=O)NCc3ccc4c(c3)OCO4)sc2c1`, the result in the data set filed under Homo sapiens was Active. For the same compound, the midpoint of inhibition in data set [1], the IC50, lay at 26.6 µM.

In the case of `O=C(Nc1ccc(O)c(C(=O)O)c1)Nc1nc2ccc(OC(F)(F)F)cc2s1`, the result in the data set listed under Homo sapiens was Active. The same compound had an IC50 in data set [1] of 185 µM. In the case of `O=C(Nc1nc2ccc(F)cc2s1)Nc1ccccc1O`, the result in the data set listed under Homo sapiens was Active. This compound also yielded an IC50 in data set [1] of 207 µM. For `COC(=O)c1cc(C(=O)O)ccc1NC(=O)Nc1nc2ccc(Cl)cc2s1`, in that order: “Active” and 22.7 µM. For `COC(=O)c1cc(NC(=S)Nc2nc3ccc(OC)cc3s2)ccc1O`, it took 15.6 µM to reach half-maximal inhibition in data set [1] (IC50). In other words, the double-digit micromolar range. Regarding `O=C(Nc1cccnc1)Nc1nc2ccc(OC(F)(F)F)cc2s1`, in the data set filed under Homo sapiens, the result was Active. In data set [1], this compound yielded an IC50 of 244 µM. Turning to `COc1ccc2nc(NC(=O)Nc3ccc(N4CCOCC4)cc3)sc2c1`, the result in the data set filed under Homo sapiens was Active. Further, the IC50 in data set [1] came out at 250 µM. Turning to `O=C(Nc1ccc(C(=O)O)c(O)c1)Nc1nc2ccc(Cl)cc2s1`, in the data set listed under Homo sapiens, the result was Active. The midpoint of inhibition in data set [1], the IC50, lay at 267 µM. `COc1ccc2nc(NC(=O)c3ccccc3)sc2c1`: the inhibition in the data set listed under Homo sapiens was less than 50%. For the compound `O=C(Nc1nc2ccc(Cl)cc2s1)Nc1ccc(O)cc1O`, the result in the data set listed under Homo sapiens was Active. For the same compound, it took 23 µM to reach half-maximal inhibition in data set [1] (IC50). On to `O=C(Nc1nc2ccc(O)cc2s1)c1cccc(O)c1O`, for which, in the data set filed under Homo sapiens, the inhibition was less than 50%.

As for `CCOc1ccc2nc(NC(=O)Nc3ccc(O)c(C(=O)OC)c3)sc2c1`, in the data set listed under Homo sapiens, the outcome was Active. Besides, in data set [1], the IC50 was found to be 20.6 µM. Regarding `COC(=O)c1cc(NC(=O)Nc2nc3ccc(OC)cc3s2)ccc1O`, in the data set listed under Homo sapiens, the result was Active. In addition, in data set [1], 26.3 µM corresponded to half-maximal inhibition (IC50). The compound `Cc1ccc2c(c1)sc(-c1ccc(N(C)C)cc1)[n+]2C` had an IC50 in data set [1] of 230 µM. As for `COC(=O)c1cc(NC(=O)Nc2nc3ccc(Cl)cc3s2)ccc1O`, the logP in data set [2] was 1.34. Also, the result in the data set listed under Homo sapiens was Active. Besides, the IC50 in data set [1] worked out at 6.46 µM.

Consider `O=C(Nc1cccnc1)Nc1nc2ccc(Cl)cc2s1`, for which the result in the data set listed under Homo sapiens was Active. The compound further returned an IC50 in data set [1] of 247 µM. For `O=C(Nc1nc2ccc(OC(F)(F)F)cc2s1)Nc1ccc(O)cc1O`, the outcome in the data set filed under Homo sapiens was Active. The compound also had an IC50 in data set [1] of 53.8 µM. Compound `COc1cccc(C(=O)Nc2nc3ccc(F)cc3s2)c1OC` showed an inhibition in the data set listed under Homo sapiens of less than 50%.

Take `COc1ccc2nc(NC(=O)c3cccc(OC)c3OC)sc2c1`: in the data set filed under Homo sapiens, the inhibition was less than 50%. Still for that read-out and setting: the result for `O=C(Nc1nc2ccc(Cl)cc2s1)c1ccccc1` reads less than 50%.
